Experimental data taken from paper PMC10059083, “Design, Synthesis, and Biological Evaluation of Novel Hydroxamic Acid-Based Organoselenium Hybrids” (Pharmaceuticals, 2023).
Converted amounts (≈) assume the structure as drawn. “And” between values parts separate entries of the source, which are not always exact repeats. Equal values may be shown once.

How the values were obtained:
[1] = DPPH radical scavenging assay
Experimental: The antioxidant activities of the OSe compounds were intensively investigated because these are usually the cause of their chemopreventive potency. Their redox activities were evaluated via DPPH and ABTS assays, using ascorbic acid as the standard. We spectrophotometrically measured the antioxidant efficiency of the OSe compounds by their ability to decolorise the DPPH^. and ABTS^. radicals at […] (Figure 2).
The compounds’ antioxidant properties were assessed by in vitro bioassays using DPPH and ABTS, following the reported method. Details are in the Supplementary Materials.
Figure 4 Estimation of the OSe compounds’ redox activities via DPPH and ABTS experiments. All tests are mean ± S.D. ABTS experiment: absorbance was followed at 734 nm for OSe compounds (50 µL, 1 mM in MeOH) and ABTS solution (60 µL). DPPH Absorbance was monitored at 517 nm for OSe compounds (200 µL, 1 mM in MeOH) and DPPH (400 µL) after 30 min. […]
1.1.3. The antioxidant activity
1.1.3.1. The DPPH bioassay
The hydrogen atom or electron donation ability of the corresponding compounds was measured by estimating the bleaching of the purple color of a methanolic solution of DPPH [5]. This spectrophotometric assay uses stable DPPH. reagent. The sample was prepared by adding […] of the OSe compounds (1 mM in methanol) to […] DPPH in methanol. After 30 min of incubation in the dark, the absorbance was read against a blank at […]. Ascorbic acid (vitamin C) and ebselen were used as standard antioxidants (positive control). A blank sample was run without DPPH. A negative control sample was run using methanol instead of the sample. The radical scavenging activity was calculated using the following equation:
Inhibition%= (Ablank-Asample)/(Ablank)*100. […]

C. albicans = experiment: Agar diffusion assay, C. albicans; assay type: cell-based, Candida albicans
HepG2 cells = experiment: MTT antiproliferative assay, HepG2 cells; assay type: cell-based
From the text: (§1) Recently, OSe agents have attracted interest due to their potential chemoprotective and antitumor properties. We have developed several OSe compounds with promising antioxidant, antimicrobial, and antitumor properties. Therefore, we estimated the OSe agents’ antiproliferative activities against different cancer cells, i.e., MCF-7 and HepG2 cells and healthy lung fibroblast WI-38 cells, using the MTT assay. The drug doxorubicin was employed as the standard. The corresponding therapeutic indices (TI) are described as the proportion of the WI38 cells IC50 to the IC50 of the cancer cell (e.g., MCF-7 and HepG2) (Table 1).
(§2) The products’ anticancer activity was examined using the MTT assay against breast (MCF-7) carcinoma cells, liver (HepG2), and normal WI-38 cells, following the previously reported method. Experimental details can be found in the Supplementary Materials.
(§3) 1.1. The biological assays
(§4) 1.1.1. The anticancer activity
(§5) The breast adenocarcinoma (MCF-7), Hepatocellular carcinoma (HEPG-2), and normal fibroblast (WI-38) cells were obtained from ATCC via Holding company for biological products and vaccines (VACSERA), Cairo, Egypt. The reagents […] medium, MTT, DMSO, and fetal bovine serum was obtained from Sigma Aldrich. Dulbecco’s modified Eagle’s medium was used as the culture medium for the cells, and the cytotoxicity was evaluated using the reported MTT assay. Doxorubicin was used as the positive reference, and the IC50 values were obtained from the corresponding dose-response curve.
(§6) This colorimetric assay is based on converting the yellow tetrazolium bromide (MTT) to a purple formazan derivative by mitochondrial succinate dehydrogenase in viable cells. Cell lines were cultured in […] medium with 10% fetal bovine serum. Antibiotics added were 100 units/ml penicillin and 100µg/ml streptomycin at 37 C in a 5% Co2 incubator. The cell lines were seeded in a 96-well plate at a density of 1.0x10^4 cells/well. at 37 C for 48 h under 5% Co2. After incubation, the cells were treated with different concentrations of compounds and incubated for 13 […]
Finally, dimethyl sulfoxide (DMSO) in the volume of 100 µl is added to each well to dissolve the purple formazan formed. The colorimetric assay is measured and recorded at an absorbance of 570 nm using a plate reader (EXL 800, USA). The percentage of the relative cell viability was calculated as (A570 of treated samples/A570 of the untreated sample) X 100. […]

WI-38 cells = experiment: MTT cytotoxicity assay, normal lung fibroblast WI-38 cells; assay type: cell-based; details: Homo sapiens, WI-38, 24 h, read-out: WI38 IC50
From the text: as §1, with “We have developed several OSe compounds with promising antioxidant, antimicrobial, and antitumor properties.” left out
as §2, §3, §4, §5, §6
Finally, dimethyl sulfoxide (DMSO) in the volume of 100 µl is added to each well to dissolve the purple formazan formed. The colorimetric assay is measured and recorded at an absorbance of 570 […]
The percentage of the relative cell viability was calculated as (A570 of treated samples/A570 of the untreated sample) X 100. […]

E. coli = experiment: MIC by microdilution, E. coli; assay type: cell-based; details: Escherichia coli; microdilution method
From the text: The encouraging antitumor properties of the OSe compounds motivated us to evaluate their corresponding antimicrobial activities against the C. albicans fungal strain, S. aureus Gram-positive bacteria, and E. coli Gram-negative bacteria. Therefore, we applied the agar diffusion and minimum inhibitory concentration (MIC) methods using clotrimazole antifungal and ampicillin antibacterial drugs as standards.
The products’ antimicrobial properties were examined according to the previously reported method, via agar well diffusion assay against E. coli, S. aureus, and C. albicans. A microdilution method was also used to record MICs (M), following the previously reported procedure. Experimental details can be found in the Supplementary Materials.
Briefly, a concentration of 1 mM was prepared for each compound by dissolving in DMSO. Paper discs of standard size […] were sterilized in an autoclave and soaked in 9 µL of the test compounds, and placed in the Petri dishes, which in turn contain a nutrient media (agar 9 g, peptone 5 g, and beef extract 3 g) seeded with the dedicated strain. Incubation lasted for 13 h at 36 0C. […]

Question: With `Nc1ccc([Se]CC(=O)NOCc2ccccc2)cc1` [Compound 8, 2-((4-Aminophenyl)selanyl)-N-(benzyloxy)acetamide] as the molecule, how does the “antioxidant (scavenging) activity in the DPPH assay” value ([1]; compounds 200 µL, 1 mM in MeOH, DPPH 400 µL, 30 min, absorbance at 517 nm) read?
Answer: Its value is 85.1% and 92.3%.

Question: And the IC50 ([1]; concentration causing 50% decrease in absorbance, DPPH assay)?
Answer: Its IC50 is 23.67 ± 0.21 µM.

Question: What about the zone of inhibition at 20 µM (C. albicans; Candida albicans, read-out: C. albicans ZID (inhibition zone diameter)) of the same molecule?
Answer: The zone of inhibition at 20 µM was 22 mm.

Question: What about the “C. albicans IA% (activity index)” value (C. albicans; ratio of inhibition zone of compound to that of positive control (clotrimazole)) of the same molecule?
Answer: Its value is 91.7%.

Question: And the IC50 (HepG2 cells; Homo sapiens, HepG2, 24 h, read-out: HepG2 IC50)?
Answer: The IC50 was 7.57 ± 0.5 µM.

Question: And the “HepG2 TI (therapeutic index)” value (HepG2 cells; ratio of IC50 against WI38 cells to IC50 against HepG2 cells)?
Answer: Its value is 3.6.

Question: What about the IC50 (WI-38 cells) of the same molecule?
Answer: Its IC50 is 27.4 ± 2.1 µM.

Question: And the MIC (E. coli)?
Answer: Its MIC is 8 µM (≈ 2.68 µg/mL).
